PubChem BioAssay (NCI)
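Where inhibition never reached the appropriate level, the endpoint shown equals the highest concentration tested. Otherwise, values were interpolated linearly from a five-concentration, 48-hour dose response in 96-well plates. At the GI50, growth is halved. The concentration for full growth arrest is given as TGI.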

Legend:
Assay in all cases: DTP human tumour cell line panel, 48 h
[1] = system: HCT-116 colon
[2] = system: SF-539 CNS
[3] = system: HCT-15 colon
[4] = system: CCRF-CEM leukemia
[5] = system: TK-10 renal
[6] = system: SK-MEL-5 melanoma
[7] = system: MDA-MB-231 breast
[8] = system: CAKI-1 renal
[9] = system: HCC-2998 colon
[10] = system: SR leukemia

Compound	TGI [1]	TGI [2]	TGI [3]	TGI [4]	TGI [5]	TGI [6]	TGI [7]	TGI [8]	TGI [9]	TGI [10]	GI50 [1]	GI50 [2]	GI50 [10]	GI50 [4]	GI50 [5]	GI50 [8]	GI50 [9]	GI50 [7]	GI50 [3]	GI50 [6]
c1cncc(C(Nc2cccc3cccnc23)Nc2cccc3cccnc23)c1	> 100 µM	> 100 µM	> 100 µM	> 100 µM	> 100 µM	> 100 µM	> 100 µM	> 100 µM	> 100 µM											
Cc1c(C(=O)CC(=O)C(=O)Nc2cccc(C(F)(F)F)c2)[n+](=O)c2ccccc2n1[O-]	10.2 µM	8.58 µM	10.3 µM	7.24 µM	79.7 µM	14 µM		21 µM	16.1 µM	8.82 µM										
COC1CC(OS(=O)(=O)c2ccc(C)cc2)C(OS(=O)(=O)c2ccc(C)cc2)C(COS(=O)(=O)c2ccc(C)cc2)O1 (stereo not drawn)	> 100 µM	6.65 µM	19 µM	> 100 µM		25.7 µM		7.7 µM	49.3 µM	33.6 µM										
CC[O-].CC[O-].O=Nc1ccc2cc([O-])ccc2c1.O=Nc1ccc2cc([O-])ccc2c1.[Ti+4]	3.22 µM	3.28 µM		> 27.3 µM	8.17 µM			12.2 µM	14.2 µM	2.95 µM	1770 nM	1820 nM	10.7 nM	2710 nM	3.67 µM	3760 nM	3.3 µM			
CCOC(=O)C#Cc1ccc(C#CC(=O)OCC)cc1	11.2 µM	> 47.5 µM	> 20.2 µM	> 20.8 µM	17.8 µM	> 27.4 µM	> 22.7 µM	> 20.2 µM												
CC(C)(C)C(=O)C(c1ccc(-c2cscn2)cc1)c1ccc(-c2cscn2)cc1	> 100 µM	> 56.3 µM	> 100 µM	> 100 µM	92 µM	> 100 µM		> 73.2 µM	> 100 µM											
CC1OC(OC2C(Oc3cc(O)c4c(=O)cc(-c5ccc(O)cc5)oc4c3)OC(CO)C(O)C2O)C(O)C(O)C1O (stereo not drawn)	> 100 µM	> 100 µM	> 100 µM	> 100 µM	> 100 µM	> 100 µM		> 100 µM												
CCOC(=O)NC(=O)c1cn(CCCOC(=O)CCCCCCCCC(=O)OCCCn2cc(C(=O)NC(=O)OCC)c(=O)[nH]c2=O)c(=O)[nH]c1=O	> 100 µM	82.1 µM	68.8 µM	21.6 µM	57.9 µM	> 100 µM		51.3 µM	44.8 µM											
CNC1NC(=O)c2ccccc2N1Cc1ccc(F)cc1 (stereo not drawn)	> 100 µM	> 100 µM	> 100 µM	> 100 µM	> 100 µM	> 100 µM	> 100 µM	> 100 µM	> 100 µM											
O[C@]12CCCC[C@H]1CCC2	> 100 µM	> 100 µM	> 100 µM	> 100 µM	> 100 µM	> 100 µM		> 100 µM	> 100 µM											
CN(C)CCCn1c2c3ccccc3ccc2c2oc(=O)c3ccccc3c21	5.05 µM	7.82 µM	4.34 µM	> 21.3 µM	23 µM	23.6 µM		27.6 µM	2.46 µM	5.56 µM										
Cc1ccc(C2=Nc3ccccc3NC(=O)C2)cc1	> 100 µM	> 100 µM	> 100 µM	> 100 µM	> 100 µM	> 100 µM		> 100 µM	> 100 µM	> 100 µM										
COc1ccc(C(=O)/C=C/c2cc(C(=O)c3cc(OC)c(OC)c(OC)c3)ccc2OC)cc1					> 100 µM		> 100 µM								14 µM			3690 nM		
COc1cc2c(cc1OC)[C@@H](C(O)c1ccccc1)NCC2 (stereo partly drawn)	> 100 µM	> 100 µM	> 100 µM	> 100 µM	> 100 µM	> 100 µM		> 100 µM	> 100 µM	> 100 µM										
O=Cc1[nH]c2ccccc2c1Br	38.1 µM	34.5 µM		99.2 µM	74.3 µM	31.1 µM		> 100 µM	> 100 µM	61.1 µM										
CCCCC(=O)[O-].N.N.N.N.N.[Co+3].[O-][Cl+3]([O-])([O-])[O-]	> 100 µM	> 100 µM	> 100 µM	> 100 µM	> 100 µM	> 100 µM			> 100 µM		> 100000 nM	> 100000 nM		> 100000 nM	> 100 µM		> 100 µM		> 100000 nM	> 100000 nM
O=C(N/N=C/c1cc(Br)cc(Br)c1[O-])c1ccccc1O.O=C(N/N=C/c1cc(Br)cc(Br)c1[O-])c1ccccc1O.[Mn+2]	7.36 µM	5.56 µM	19.9 µM	6.42 µM	31 µM	19.2 µM		11.9 µM	25.9 µM					263 nM						
COC1=C(C(=O)OC(C)(C)C)[C@]2(C)C(C(=O)OC(C)(C)C)C(OC)=C(C(=O)OC(C)(C)C)[C@]2(C)C1C(=O)OC(C)(C)C (stereo partly drawn)	> 100 µM	> 100 µM	> 100 µM	> 100 µM	> 100 µM	> 100 µM		> 100 µM	> 100 µM	> 100 µM										
C=C(CN1CCN(c2ccccc2F)CC1)c1ccc(C(=O)Nc2ccccc2N)cc1	13.5 µM	6.31 µM	> 100 µM		59.8 µM	16.8 µM	3.14 µM	7.18 µM	17.7 µM		957 nM	1550 nM			1.7 µM	1810 nM	3.2 µM	240 nM	737 nM	1510 nM
CC(=O)O[C@@H]1CC(C)C2CC2C2=C(C(O)OC2O)[C@@H]1C(C)CCC=C(C)C (stereo partly drawn)	32.7 µM	34.2 µM	49.5 µM	51.9 µM	90 µM	60.6 µM		58.3 µM	40.5 µM											
Cc1cc2c(c(C#N)c1C)NC(=O)C(CC(=O)O)C2=O (stereo not drawn)	> 100 µM	> 100 µM	> 100 µM	> 100 µM	> 100 µM	> 100 µM		> 100 µM	> 100 µM											
COc1ccc2nc(NC(=O)C(=O)CC(=O)c3ccc(Cl)cc3)sc2c1	> 100 µM	98.4 µM	> 100 µM	> 100 µM	> 100 µM	> 100 µM		> 100 µM	> 100 µM	> 100 µM										
Cc1ccc(S(=O)(=O)OCC23CCC(C4CC42)C2CC23)cc1 (stereo not drawn)	> 100 µM		> 100 µM	> 100 µM	> 100 µM	> 100 µM		> 100 µM	> 100 µM	> 100 µM										
